# Patent US12139499B2, “Heteroaryl compounds for treating Huntington's disease” (PTC THERAPEUTICS, INC., priority 2018, dated 2024)
# pIC50: −log10 of the molar value.
# Tested on: Endogenous Huntingtin Protein
# Assay: Endogenous Huntingtin Protein Assay (ELISA-based MSD electrochemiluminescence)
# Format: cell-based
# Settings: Table 1
# Experimental: Compounds of Formula (I) or Formula (II) were tested using the Meso Scale Discovery (MSD) Assay provided in International Application No. PCT/US2016/066042, filed on Dec. 11, 2016 and claiming priority to U.S. Provisional Application 62/265,652 filed on Dec. 10, 2015, the entire contents of which are incorporated herein by reference.
# The Endogenous Huntingtin Protein assay used in Example 1 was developed using the ELISA-based MSD electrochemiluminescence assay platform.
# Endogenous Huntingtin Protein Assay
# Meso Scale Discovery (MSD) 96-well or 384-well plates were coated overnight at 4° C. with MW1 (expanded polyglutamine) or MAB2166 monoclonal antibody (for capture) at a concentration of 1 μg/mL in PBS (30 μL per well). Plates were then washed three times with 300 μL wash buffer (0.05% Tween-20 in PBS) and blocked (100 μL blocking buffer; 5% BSA in PBS) for 4-5 hours at room temperature with rotational shaking and then washed three times with wash buffer.
# Samples (25 μL) were transferred to the antibody-coated MSD plate and incubated overnight at 4° C. After removal of the lysates, the plate was washed three times with wash buffer, and 25 μL of #5656S (Cell signaling; rabbit monoclonal) secondary antibody (diluted to 0.25 μg/mL in 0.05% Tween-20 in blocking buffer) was added to each well and incubated with shaking for 1 Hour at room temperature. Following incubation with the secondary antibody, the wells were rinsed with wash buffer after which 25 μL of goat anti-rabbit SULFO TAG secondary detection antibody (required aspect of the MSD system) (diluted to 0.25 μg/mL in 0.05% Tween-20 in blocking buffer) was added to each well and incubated with shaking for 1 hour at room temperature. After rinsing three times with wash buffer, 150 μL of read buffer T with surfactant (MSD) were added to each empty well, and the plate was imaged on a SI 6000 imager (MSD) according to manufacturers' instructions provided for 96- or 384-well plates.
row,Compound,pIC50
1,"5-{2-[(1,5-dimethyl-8-azabicyclo[3.2.1]oct-3-yl)(methyl)amino][1,3]thiazolo[5,4-d]pyrimidin-5-yl)-2-methyl-2H-indazole-7-carbonitrile [Compound 254]",≥ 7.00
2,"Cn1cc2cc(-c3ccc4nc(C5=CCNCC5)sc4c3)ccc2n1 [Compound 1, 6-(2-methyl-2H-indazol-5-yl)-2-(1,2,3,6-tetrahydropyridin-4-yl)-1,3-benzothiazole]",6.30 to 7.00
3,"Cn1cc2cc(-c3ccc4nc(C5CCNCC5)sc4c3)ccc2n1 [Compound 2, 6-(2-methyl-2H-indazol-5-yl)-2-(piperidin-4-yl)-1,3-benzothiazole]",6.30 to 7.00
4,"CN1CC=C(c2nc3ccc(-c4ccc5nn(C)cc5c4)cc3s2)CC1 [Compound 3, 6-(2-methyl-2H-indazol-5-yl)-2-(1-methyl-1,2,3,6-tetrahydropyridin-4-yl)-1,3-benzothiazole]",6.00 to 6.30
5,"Cn1cc2cc(-c3nc4ccc(C5=CCNCC5)cc4s3)ccc2n1 [Compound 4, 2-(2-methyl-2H-indazol-5-yl)-6-(1,2,3,6-tetrahydropyridin-4-yl)-1,3-benzothiazole]",6.30 to 7.00
6,"Cn1cc2cc(-c3nc4ccc(C5CCNCC5)cc4s3)ccc2n1 [Compound 5, 2-(2-methyl-2H-indazol-5-yl)-6-(piperidin-4-yl)-1,3-benzothiazole]",6.00 to 6.30
7,"CN1CC=C(c2ccc3nc(-c4ccc5nn(C)cc5c4)sc3c2)CC1 [Compound 6, 2-(2-methyl-2H-indazol-5-yl)-6-(1-methyl-1,2,3,6-tetrahydropyridin-4-yl)-1,3-benzothiazole]",5.52 to 6.00
8,"Cn1cc2cc(-c3ccc4nc(N5CCNCC5)sc4c3)ccc2n1 [Compound 7, 6-(2-methyl-2H-indazol-5-yl)-2-(piperazin-1-yl)-1,3-benzothiazole]",5.52 to 6.00
9,"CN(c1nc2ccc(-c3ccc4nn(C)cc4c3)cc2s1)C1CCNCC1 [Compound 8, N-methyl-6-(2-methyl-2H-indazol-5-yl)-N-(piperidin-4-yl)-1,3-benzothiazol-2-amine]",6.30 to 7.00
10,"CN1CCC(c2nc3ccc(-c4ccc5nn(C)cc5c4)cc3s2)CC1 [Compound 9, 6-(2-methyl-2H-indazol-5-yl)-2-(1-methylpiperidin-4-yl)-1,3-benzothiazole]",5.52 to 6.00
11,"CN1CCC(c2ccc3nc(-c4ccc5nn(C)cc5c4)sc3c2)CC1 [Compound 10, 2-(2-methyl-2H-indazol-5-yl)-6-(1-methylpiperidin-4-yl)-1,3-benzothiazole]",5.52 to 6.00
12,"CN(c1ccc2nc(-c3ccc4nn(C)cc4c3)sc2c1)C1CCNCC1 [Compound 11, N-methyl-2-(2-methyl-2H-indazol-5-yl)-N-(piperidin-4-yl)-1,3-benzothiazol-6-amine]",5.52 to 6.00
13,"CN(c1nc2ncc(-c3ccc4nn(C)cc4c3)cc2s1)C1CCNCC1 [Compound 12, N-methyl-6-(2-methyl-2H-indazol-5-yl)-N-(piperidin-4-yl)[1,3]thiazolo[4,5-b]pyridine-2-amine]",5.52 to 6.00
14,"Cc1cc(-c2cnc3nc(N(C)C4CCNCC4)sc3c2)cc2cn(C)nc12 [Compound 13, 6-(2,7-dimethyl-2H-indazol-5-yl)-N-methyl-N-(piperidin-4-yl)[1,3]thiazolo[4,5-b]pyridin-2-amine]",6.00 to 6.30
15,"Cc1cc(-c2cnc3nc(NC4CCNCC4)sc3c2)cc2cn(C)nc12 [Compound 14, 6-(2,7-dimethyl-2H-indazol-5-yl)-N-(piperidin-4-yl)[1,3]thiazolo[4,5-b]pyridin-2-amine]",5.52 to 6.00
16,"Cn1cc2cc(-c3cnc4nc(NC5CCNCC5)sc4c3)ccc2n1 [Compound 15, 6-(2-methyl-2H-indazol-5-yl)-N-(piperidin-4-yl)[1,3]thiazolo[4,5-b]pyridin-2-amine]",5.52 to 6.00
17,"CN(c1nc2ncc(-c3ccc4nn(C)cc4c3)cc2s1)C1CC(C)(C)NC(C)(C)C1 [Compound 16, N-methyl-6-(2-methyl-2H-indazol-5-yl)-N-(2,2,6,6-tetramethylpiperidin-4-yl)[1,3]thiazolo[4,5-b]pyridin-2-amine]",6.00 to 6.30
18,"Cc1cc(-c2cnc3nc(N(C)C4CC(C)(C)NC(C)(C)C4)sc3c2)cc2cn(C)nc12 [Compound 17, 6-(2,7-dimethyl-2H-indazol-5-yl)-N-methyl-N-(2,2,6,6-tetramethylpiperidin-4-yl)[1,3]thiazolo[4,5-b]pyridin-2-amine]",6.30 to 7.00
19,"Cc1cc(-c2ccc3nc(C4=CCNCC4)sc3c2)cc2cn(C)nc12 [Compound 18, 6-(2,7-dimethyl-2H-indazol-5-yl)-2-(1,2,3,6-tetrahydropyridin-4-yl)-1,3-benzothiazole]",6.30 to 7.00
20,"Cn1cc2cc(-c3nc4ncc(C5=CCNCC5)cc4s3)ccc2n1 [Compound 19, 2-(2-methyl-2H-indazol-5-yl)-6-(1,2,3,6-tetrahydropyridin-4-yl)[1,3]thiazolo[4,5-b]pyridine]",6.30 to 7.00
21,"CN(c1nc2ccc(-c3ccc4nn(C)cc4c3)cc2s1)C1CC(C)(C)NC(C)(C)C1 [Compound 20, N-methyl-6-(2-methyl-2H-indazol-5-yl)-N-(2,2,6,6-tetramethylpiperidin-4-yl)-1,3-benzothiazol-2-amine]",≥ 7.00
22,"Cc1cc(-c2ccc3nc(N(C)C4CC(C)(C)NC(C)(C)C4)sc3c2)cc2cn(C)nc12 [Compound 21, 6-(2,7-dimethyl-2H-indazol-5-yl)-N-methyl-N-(2,2,6,6-tetramethylpiperidin-4-yl)-1,3-benzothiazol-2-amine]",6.30 to 7.00
23,"Cc1cc(-c2ccc3nc(C4CCNCC4)sc3c2)cc2cn(C)nc12 [Compound 22, 6-(2,7-dimethyl-2H-indazol-5-yl)-2-(piperidin-4-yl)-1,3-benzothiazole]",≥ 7.00
24,"CN(c1nc2c(F)cc(-c3ccc4nn(C)cc4c3)cc2s1)C1CC(C)(C)NC(C)(C)C1 [Compound 23, 4-fluoro-N-methyl-6-(2-methyl-2H-indazol-5-yl)-N-(2,2,6,6-tetramethylpiperidin-4-yl)-1,3-benzothiazol-2-amine]",≥ 7.00
25,"Cc1cc(-c2cc(F)c3nc(N(C)C4CC(C)(C)NC(C)(C)C4)sc3c2)cc2cn(C)nc12 [Compound 24, 6-(2,7-dimethyl-2H-indazol-5-yl)-4-fluoro-N-methyl-N-(2,2,6,6-tetramethylpiperidin-4-yl)-1,3-benzothiazol-2-amine]",≥ 7.00
26,"CN(c1nc2ccc(-c3ccc4nn(C)cc4c3)nc2s1)C1CC(C)(C)NC(C)(C)C1 [Compound 25, N-methyl-5-(2-methyl-2H-indazol-5-yl)-N-(2,2,6,6-tetramethylpiperidin-4-yl)[1,3]thiazolo[5,4-b]pyridin-2-amine]",6.30 to 7.00
27,"CN(c1nc2ccc(-c3ccc4nn(C)cc4c3)nc2s1)C1CCNCC1 [Compound 26, N-methyl-5-(2-methyl-2H-indazol-5-yl)-N-(piperidin-4-yl)[1,3]thiazolo[5,4-b]pyridin-2-amine]",6.00 to 6.30
28,"CN(c1nc2cnc(-c3ccc4nn(C)cc4c3)cc2s1)C1CCNCC1 [Compound 27, N-methyl-6-(2-methyl-2H-indazol-5-yl)-N-(piperidin-4-yl)[1,3]thiazolo[4,5-c]pyridin-2-amine]",6.00 to 6.30
29,"CN(C)C1CCN(c2nc3ccc(-c4ccc5nn(C)cc5c4)cc3s2)CC1 [Compound 28, N,N-dimethyl-1-[6-(2-methyl-2H-indazol-5-yl)-1,3-benzothiazol-2-yl]piperidin-4-amine]",5.52 to 6.00
